In US20260109721A1, “IONIZABLE CATIONIC LIPIDS INCORPORATING SILICON: SYNTHESIS AND LNP FORMULATION” (priority 2023, published 2026):

Key:
[1] = Encapsulation efficiency of loaded LNPs, RiboGreen RNA assay (Method A); type: physicochemical; settings: encapsulation efficiency of mRNA-loaded LNP, Method A, RiboGreen
Method: (§1) The synthesized lipids were tested in term of in vitro transfection efficacy and toxicity on HeLa cells. In order to perform the mentioned biological tests, appropriate LNPs had to be formulated from the synthesized lipids. The formulation technique was different in Method A and B. The particle size, polydispersity index (PDI) and zeta potential of resulting LNPs were determined by means of Dynamic Light Scattering technique (DLS). Prior to biological testing the encapsulation efficiency (EE) of the loaded LNPs was determined by using RiboGreen RNA assay. In case of Method A Luc mRNA while in case of Method B GFP mRNA was transfected into the cells. In parallel with the transfection experiments, toxicity of the investigated LNPs was determined, in case of Method A resazurin assay while in case of Method B MTT assay was used. Additionally, the toxicity of the lipids was investigated on HepG2 cells and IC50 values were determined.
• 1. Preparation of sample stock solutions: In the top row of the 96-well plate (Row A in the plate), add 297 μL of TE buffer pH 7.4 (see Table 1) to a single well for each sample plus a single well for a PBS blank using a multichannel pipette.
• 2. Add 3 μL of sample (at 0.5 mg/ml) to these wells for a final volume of 300 μL. Add 3 μL of PBS to the blank well. Pipette to mix. This is your stock solution for each sample. The final RNA concentration of these stock solutions should be approximately 4-7 μg/mL. • 3. mRNA-LNP sample setup: • a. Add 50 μL of TE buffer pH 7.5 to the two wells directly below each sample (Rows B and C in the plate). • b. Add 50 μL of sample stock solution from Row A into the wells in Rows B and C (this assay is run in duplicate. All liquid handling should be done using a multichannel pipette). • c. Add 50 μL of Triton buffer to the wells in Rows D and E (in the plate) below each sample. • d. Add 50 μL of sample stock solution from Row A into the wells in Rows D and E. • 4. RiboGreen RNA standard curve setup: Dilute the RNA standard to produce an RNA stock at a final concentration of 20 μg/mL in TE buffer pH 7.4. The final volume should be 150 μL. Set up a standard curve (in duplicate) as using the RNA stock (20 μg/mL siRNA), TE buffer pH 7.5, and Triton X-100 buffer according the Table 2 and Table 3 below.
• 5. Once samples and standard curve are plated, incubate the plate at 37° C. for 10 min to lyse mRNA-LNP in the presence of Triton X-100 buffer. • 6. Meanwhile, prepare RiboGreen Solution: Sum the total number of sample wells and standard curve wells. Add three to this number, and multiply the total by 100. This is the total volume, in μL, of RiboGreen Solution needed for this assay. In a 15 mL RNAse-free Falcon tube, dilute the RiboGreen Reagent 1:100 into TE buffer pH 7.5 to the total volume calculated. • 7. Addition of RiboGreen Solution and sample readings: Remove a 96-well plate from 37° C. incubator; let it cool to room temperature as RiboGreen binding is somewhat temperature dependent. Add 100 μL of RiboGreen Solution to each well. Pop any air bubbles with a needle. Read using fluorescent plate reader (excitation=480, emission=525). • 8. Sample analysis: Use the data generated by the RiboGreen standard curve to calculate the concentration of mRNA. Transfection Efficiency with Luciferase-mRNA (Method A)

[2] = LNP size, PDI and zeta potential by Dynamic Light Scattering (Method A); type: physicochemical; settings: LNP formulated with the lipid, DLS
Method: as §1
• 1. If needed, prepare stock solutions by solving known amounts of lipid powder into an appropriate solvent. The recommended solvent is ethanol and the recommended concentration is typically in the range 10-50 mM. Higher concentrations are preferred to allow flexibility on mRNA-LNP concentration. • 2. Remove the lipid stock solutions from the −20° C. freezer. For long-term storage, −80° C. is used. • 3. Check the vials for precipitation, DOPE (CAS #4004-05-1) (20 mM) and DSPE-PEG (CAS #474922-26-4) (5 mM) may need a 5-30 minute incubation step at 37° C. with intermittent vortexing to resuspend all contents. […] As a last resort, lipids may be heated to 50° C. to resuspend, time should be kept as short as possible to prevent oxidation or other modifying or degradative processes. • 4. Mix the lipids by vortexing for 2 minutes. • 5. […] Cooling the solution prevent excessive evaporation of ethanol or similar solvents upon opening. • 6. Meanwhile, thaw the RNA samples, including the latest SecNLuc control, by inserting the frozen tube in a room temperature aluminium block. • 7. Prepare for each LNP-formulation with identical mRNA component, an RNA master mix according to Table 1 below in a fresh tube. Use of a master mix allows more precise comparison of lipid formulations relative to each other. Split the master mix over a number of fresh tubes equal to the number of samples+controls. Each tube contains 375 μl of mRNA in 10 mM Citrate pH 4.0. • 8. Prepare for each LNP formulation with identical lipid composition a Lipid master mix according to Table 1 below in a fresh tube, exclude the lipid of interest. Use of a master mix allows more precise comparison of the novel ionizable lipid relative to each other. Split the master mix over a number of fresh tubes equal to the number of samples+controls. Each tube contains 65.5 μl of lipid master mix. • 9. Add the ionizable lipid of interest to the equally divide lipid master mix. Mix well by pipetting up and down. Label the tube according to the ionizable lipid used. • 10. Power on the L1 FM (L1 Formulation Machine uses 2 high-speed syringe pumps to mix lipids in organic solvents with mRNA in acidic aquous solution to generate well-defined LNPs. The microfluidic mixing chip involves a dean-type structure performing the high-efficiency mixing at a total flow rate (TFR) of around 12 ml/min at a 3:1 mixing ratio) and allow it to do a calibration of motor positions.
• 18. Fill a fresh syringe (C) through a blunt 18G stainless steel needle with the previously prepared RNA mixture of step 6. The volume should be approximately 85% of total formulation volume+25 μl (dead-volume). Make sure to remove all air bubbles by tapping. • 19. Fill a fresh syringe (D) through a blunt 18G stainless steel needle with the Lipid master mix. The volume should be approximately […] of total formulation volume+25 μl (dead-volume). Again, Make sure to remove all bubbles. • 20. Attach the syringes in the correct orientation, syringe A on the left and syringe B on the right • 21.

| SMILES | EE (%) [1] | PDI [2] | Size (nm) [2] | Zeta potential (mV) [2] |
| --- | --- | --- | --- | --- |
| CCCCCCCC/C=C\CCCCCCCC(OCC(CCCCCC)CCCCCCCC)O[Si](C)(C)OCCCCCCN(CCO)CCO (stereo not shown) [Example 50, (Z)-13-(heptadec-8-en-1-yl)-16-hexyl-3-(2-hydroxyethyl)-11,11-dimethyl-10,12,14-trioxa-3-aza-11-silatetracosan-1-ol] | 86% | 0.022 | 153.8 nm | −10.38 mV |
| CCCCCCCC/C=C\CCCCCCCCOC(CC[C@@H](C)C1CCC2C3CCC4C[C@H](OC)CC[C@]4(C)C3CC[C@@]21C)O[Si](C)(C)OCCCCCCN(CCO)CCO (stereo partly drawn) [Example 51, (Z)-3-(2-hydroxyethyl)-13-((3R)-3-((3R,10S,13R)-3-methoxy-10,13-dimethylhexadecahydro-1H-cyclopenta[a]phenanthren-17-yl)butyl)-11,11-dimethyl-10,12,14-trioxa-3-aza-11-siladotriacont-23-en-1-ol] | 89% | 0.060 | 135.6 nm | −8.124 mV |
| CCCCC/C=C\C/C=C\CCCCCCCCOC(CC[C@@H](C)C1CCC2C3CCC4C[C@H](OC)CC[C@]4(C)C3CC[C@@]21C)O[Si](C)(C)OCCCCCCN(CCO)CCO (stereo partly drawn) [Example 52, (23Z,26Z)-3-(2-hydroxyethyl)-13-((3R)-3-((3R,10S,13R)-3-methoxy-10,13-dimethylhexadecahydro-1H-cyclopenta[a]phenanthren-17-yl)butyl)-11,11-dimethyl-10,12,14-trioxa-3-aza-11-siladotriaconta-23,26-dien-1-ol] | 86% | 0.005 | 137.6 nm | −9.231 mV |
| CCCCC/C=C\C/C=C\CCCCCCCCOC(CCCCCCC/C=C\C/C=C\CCCCC)O[Si](C)(C)OCCCCCCN1CCOCC1 (stereo not shown) [Example 55, 4-((20Z,23Z)-10-((8Z,11Z)-heptadeca-8,11-dien-1-yl)-8,8-dimethyl-7,9,11-trioxa-8-silanonacosa-20,23-dien-1-yl)morpholine] | 21% | 0.441 | 319.9 nm | −10.81 mV |
| CCCCC/C=C\C/C=C\CCCCCCCCOC(CCCCCCC/C=C\C/C=C\CCCCC)O[Si](C)(C)OCCCCCCN(C)CCO (stereo not shown) [Example 56, (23Z,26Z)-13-((8Z,11Z)-heptadeca-8,11-dien-1-yl)-3,11,11-trimethyl-10,12,14-trioxa-3-aza-11-siladotriaconta-23,26-dien-1-ol] | 85% | 0.057 | 149.5 nm | −10.08 mV |
| CCCCC/C=C\C/C=C\CCCCCCCCOC(CCCCCCC/C=C\C/C=C\CCCCC)O[Si](C)(C)OCCCCCCN1CCCCC1 (stereo not shown) [Example 57, 1-((20Z,23Z)-10-((8Z,11Z)-heptadeca-8,11-dien-1-yl)-8,8-dimethyl-7,9,11-trioxa-8-silanonacosa-20,23-dien-1-yl)piperidine] | 87% | 0.041 | 160.3 nm | −11.06 mV |
| CCCCC/C=C\C/C=C\CCCCCCCCOC(CCCCCCC/C=C\C/C=C\CCCCC)O[Si](C)(C)OCCCCCCN1CCN(CCO)CC1 (stereo not shown) [Example 58, 2-(4-((20Z,23Z)-10-((8Z,11Z)-heptadeca-8,11-dien-1-yl)-8,8-dimethyl-7,9,11-trioxa-8-silanonacosa-20,23-dien-1-yl)piperazin-1-yl)ethan-1-ol] | 86% | 0.011 | 160.6 nm | −11.86 mV |
| CCCCC/C=C\C/C=C\CCCCCCCCOC(CCCCCCC/C=C\C/C=C\CCCCC)O[Si](C)(C)OCCCCCCN(C)CC(O)CO (stereo not shown) [Example 59, (24Z,27Z)-14-((8Z,11Z)-heptadeca-8,11-dien-1-yl)-4,12,12-trimethyl-11,13,15-trioxa-4-aza-12-silatritriaconta-24,27-diene-1,2-diol] | 88% | 0.105 | 112.8 nm | −8.941 mV |
| CCCCC/C=C\C/C=C\CCCCCCCCOC(CCCCCCC/C=C\C/C=C\CCCCC)O[Si](C)(C)OCCCCCCN(C)CCCCO (stereo not shown) [Example 60, (25Z,28Z)-15-((8Z,11Z)-heptadeca-8,11-dien-1-yl)-5,13,13-trimethyl-12,14,16-trioxa-5-aza-13-silatetratriaconta-25,28-dien-1-ol] | 84% | 0.041 | 201.0 nm | −7.785 mV |
| CCCCC/C=C\C/C=C\CCCCCCCCOC(CCCCCCC/C=C\C/C=C\CCCCC)O[Si](C)(C)OCCCCCCN(CCCCO)CCCCO (stereo not shown) [Example 62, (25Z,28Z)-15-((8Z,11Z)-heptadeca-8,11-dien-1-yl)-5-(4-hydroxybutyl)-13,13-dimethyl-12,14,16-trioxa-5-aza-13-silatetratriaconta-25,28-dien-1-ol] | 84% | 0.13 | 236.8 nm | −10.74 mV |
